Each structure is given as a SMILES string.

The target in one test is TBK1 (Homo sapiens (Human), UniProt Q9UHD2). In words: TBK1 low ATP kinase assay (in vitro assay 1). It counts as biochemical. The following applies: TBK1 low ATP kinase assay IC50, in vitro assay 1.
TBK1, sequence (Q9UHD2 whole entry): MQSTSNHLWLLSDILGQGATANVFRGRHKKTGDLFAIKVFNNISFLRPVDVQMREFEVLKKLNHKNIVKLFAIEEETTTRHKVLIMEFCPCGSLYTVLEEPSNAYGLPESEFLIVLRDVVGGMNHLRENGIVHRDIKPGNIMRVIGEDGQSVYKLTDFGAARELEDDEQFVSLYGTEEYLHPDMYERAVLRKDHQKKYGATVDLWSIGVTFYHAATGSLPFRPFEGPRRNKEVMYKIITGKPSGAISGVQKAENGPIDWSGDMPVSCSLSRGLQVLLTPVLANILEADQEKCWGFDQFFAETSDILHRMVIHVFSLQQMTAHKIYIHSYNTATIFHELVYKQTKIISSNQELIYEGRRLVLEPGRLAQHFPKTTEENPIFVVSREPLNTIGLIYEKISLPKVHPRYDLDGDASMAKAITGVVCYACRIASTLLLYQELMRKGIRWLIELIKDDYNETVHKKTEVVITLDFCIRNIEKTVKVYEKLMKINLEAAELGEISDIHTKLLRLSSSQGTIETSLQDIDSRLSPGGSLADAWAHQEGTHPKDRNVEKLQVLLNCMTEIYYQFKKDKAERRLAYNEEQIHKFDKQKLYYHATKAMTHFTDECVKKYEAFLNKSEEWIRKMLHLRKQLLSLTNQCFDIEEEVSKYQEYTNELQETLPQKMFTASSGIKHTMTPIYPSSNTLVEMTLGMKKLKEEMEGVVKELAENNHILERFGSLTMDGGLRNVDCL
Compound `O=C(CC(F)(F)F)N1CCN(Cc2ccnc(Nc3nc4ccc(-c5cnn(CC6CCC6)c5)cc4[nH]3)c2)CC1` [Example 59.02.01, 1-(4-{[2-({6-[1-(cyclobutylmethyl)-1H-pyrazol-4-yl]-1H-benzimidazol-2-yl}amino)pyridin-4-yl]methyl}piperazin-1-yl)-3,3,3-trifluoropropan-1-one] came in with an IC50 of 7.56 nM.

The same test, now with this note: in vitro assay 1, read-out: TBK1 low ATP kinase assay IC50.
Take `CC(c1ccnc(Nc2nc3ccc(-c4cc(N5CCOCC5)ncn4)cc3[nH]2)c1)N1CCN(C(=O)C2CC2)CC1` (single isomer, unassigned) [Example 118.02, cyclopropyl(4-{(1R or 1S)-1-[2-({6-[6-(morpholin-4-yl)pyrimidin-4-yl]-1H-benzimidazol-2-yl}amino)pyridin-4-yl]ethyl}piperazin-1-yl)methanone]: the IC50 came to 3.3 nM. As to `Cc1cncnc1-c1ccc2nc(Nc3cc(CN4CCN(C(=O)C5CC5)CC4)ccn3)[nH]c2c1` [Example 184.03, cyclopropyl{4-[(2-{[6-(5-methylpyrimidin-4-yl)-1H-benzimidazol-2-yl]amino}pyridin-4-yl)methyl]piperazin-1-yl}methanone], the IC50 turned out to be 216 nM.

Take `COc1c(-c2ccc3nc(Nc4cc(C(C)N5CCN(C(=O)CC(F)(F)F)CC5)ccn4)[nH]c3c2)ncnc1N(C)C` (single isomer, unassigned) [Example 107.02.03, 1-(4-{(1R or 1S)-1-[2-({6-[6-(dimethylamino)-5-methoxypyrimidin-4-yl]-1H-benzimidazol-2-yl}amino)pyridin-4-yl]ethyl}piperazin-1-yl)-3,3,3-trifluoropropan-1-one]: the IC50 came to 5.4 nM. Still for that read-out and setting: the value for `CCNc1cc(-c2ccc3nc(Nc4cc(CN5CCN(C(=O)C6CC6)CC5)ccn4)[nH]c3c2)ncn1` [Example 149.03, cyclopropyl(4-{[2-({6-[6-(ethylamino)pyrimidin-4-yl]-1H-benzimidazol-2-yl}amino)pyridin-4-yl]methyl}piperazin-1-yl)methanone] was 2.3 nM.

As for `Cc1cc(-c2ccc3nc(Nc4cc(CN5CCN(C(=O)CC(F)(F)F)CC5)ccn4)[nH]c3c2)c(F)cn1` [Example 131.02, 3,3,3-trifluoro-1-{4-[(2-{[6-(5-fluoro-2-methylpyridin-4-yl)-1H-benzimidazol-2-yl]amino}pyridin-4-yl)methyl]piperazin-1-yl}propan-1-one], the IC50 amounted to 62 nM. The same measure, in the same setting: in the case of `O=C(CC1CC1)N1CCN(Cc2ccnc(Nc3nc4ccc(-c5cncnc5)cc4[nH]3)c2)CC1` [Example 45.01.02, 2-cyclopropyl-1-{4-[(2-{[6-(pyrimidin-5-yl)-1H-benzimidazol-2-yl]amino}pyridin-4-yl)methyl]piperazin-1-yl}ethanone] it was 397 nM; in that of `Cc1nccc(-c2ccc3nc(Nc4cc(C(C)N5CCN(C(=O)C6CC6)CC5)ccn4)[nH]c3c2)n1` (single isomer, unassigned) [Example 24.05.04.A, cyclopropyl{4-[(1R or 1S)-1-(2-{[6-(2-methylpyrimidin-4-yl)-1H-benzimidazol-2-yl]amino}pyridin-4-yl)ethyl]piperazin-1-yl}methanone], 6.67 nM; in that of `CCOc1nccc(-c2ccc3nc(Nc4cc(CN5CCN(C(=O)OC(C)(C)C)CC5)ccn4)[nH]c3c2)n1` [Example 26.01.01, tert-butyl 4-[(2-{[6-(2-ethoxypyrimidin-4-yl)-1H-benzimidazol-2-yl]amino}pyridin-4-yl)methyl]piperazine-1-carboxylate], 35.7 nM. Same read-out and setting: in the case of `COc1cc(-c2ccc3nc(Nc4cc(C(C)N5CCN(C(=O)C6CC6)CC5)ccn4)[nH]c3c2)ncn1` (racemic) [Example 34.02.02, (rac)-cyclopropyl{4-[1-(2-{[6-(6-methoxypyrimidin-4-yl)-1H-benzimidazol-2-yl]amino}pyridin-4-yl)ethyl]piperazin-1-yl}methanone] it was 9.1 nM; in that of `CC(c1ccnc(Nc2nc3ccc(-c4cnn(CC5CC5)c4)c(Cl)c3[nH]2)c1)N1CCN(C(=O)OC(C)(C)C)CC1` (single isomer, unassigned) [Example 122.01, tert-butyl 4-{(1R or 1S)-1-[2-({7-chloro-6-[1-(cyclopropylmethyl)-1H-pyrazol-4-yl]-1H-benzimidazol-2-yl}amino)pyridin-4-yl]ethyl}piperazine-1-carboxylate], 9.3 nM.

As to `CC(=O)c1cc(-c2ccc3nc(Nc4cc(CN5CCN(C(=O)CC(F)(F)F)CC5)ccn4)[nH]c3c2)ncn1` [Example 97.03, 1-{4-[(2-{[6-(6-acetylpyrimidin-4-yl)-1H-benzimidazol-2-yl]amino}pyridin-4-yl)methyl]piperazin-1-yl}-3,3,3-trifluoropropan-1-one], the IC50 amounted to 29 nM.

Take `O=C(CC(F)(F)F)N1CCN(Cc2ccnc(Nc3nc4ccc(-c5ncnc6c5COC6)cc4[nH]3)c2)CC1` [Example 182.02, 1-{4-[(2-{[6-(5,7-dihydrofuro[3,4-d]pyrimidin-4-yl)-1H-benzimidazol-2-yl]amino}pyridin-4-yl)methyl]piperazin-1-yl}-3,3,3-trifluoropropan-1-one]: the IC50 came to 110 nM. Regarding `Cc1cc(-c2ccc3nc(Nc4cc(CN5CCN(C(=O)C6CC6)CC5)ccn4)[nH]c3c2)nc(C)n1` [Example 31.02, cyclopropyl{4-[(2-{[6-(2,6-dimethylpyrimidin-4-yl)-1H-benzimidazol-2-yl]amino}pyridin-4-yl)methyl]piperazin-1-yl}methanone], the IC50 was found to be 77 nM. `O=C(CC(F)(F)F)N1CCN(Cc2ccnc(Nc3nc4ccc(-c5nnc(CC6CCC6)o5)cc4[nH]3)c2)CC1` [Example 126.02, 1-(4-{[2-({6-[5-(cyclobutylmethyl)-1,3,4-oxadiazol-2-yl]-1H-benzimidazol-2-yl}amino)pyridin-4-yl]methyl}piperazin-1-yl)-3,3,3-trifluoropropan-1-one]: the IC50 is 3.9 nM. On the same count and under the same terms, in the case of `COc1cncnc1-c1ccc2nc(Nc3cc(C(C)N4CCN(C(=O)C5CC5)CC4)ccn3)[nH]c2c1` (single isomer, unassigned) [Example 35.03.03.A, cyclopropyl{4-[(1R or 1S)-1-(2-{[6-(5-methoxypyrimidin-4-yl)-1H-benzimidazol-2-yl]amino}pyridin-4-yl)ethyl]piperazin-1-yl}methanone] it was 5.62 nM; in that of `COc1cnccc1-c1ccc2nc(Nc3cc(CN4CCN(C(=O)C(C)(C)OC)CC4)ccn3)[nH]c2c1` [Example 04.10, 2-methoxy-1-{4-[(2-{[6-(3-methoxypyridin-4-yl)-1H-benzimidazol-2-yl]amino}pyridin-4-yl)methyl]piperazin-1-yl}-2-methylpropan-1-one], 28.3 nM; in that of `CC(C)Cc1nc(-c2ccc3nc(Nc4cc(CN5CCN(C(=O)OC(C)(C)C)CC5)ccn4)[nH]c3c2)n(C)n1` [Example 42.01, tert-butyl 4-{[2-({6-[1-methyl-3-(2-methylpropyl)-1H-1,2,4-triazol-5-yl]-1H-benzimidazol-2-yl}amino)pyridin-4-yl]methyl}piperazine-1-carboxylate], 577 nM.

In the case of `Cc1cc(CN2CCN(C(=O)C3CC3)CC2)cc(Nc2nc3ccc(-c4ccncn4)cc3[nH]2)n1` [Example 23.02.02, cyclopropyl{4-[(2-methyl-6-{[6-(pyrimidin-4-yl)-1H-benzimidazol-2-yl]amino}pyridin-4-yl)methyl]piperazin-1-yl}methanone], the IC50 stood at 13.6 nM.

The values above are taken from US10894784B2, “Heteroarylbenzimidazole compounds” (BAYER PHARMA AKTIENGESELLSCHAFT, priority 2015, dated 2021).
